For one series, the target named is HCN2 (Homo sapiens (Human), UniProt Q9UL51). Briefly: HCN2 current assay using PatchXpress 7000A. In kind it is cell-based. Particulars: PatchXpress protocol; read-out: PX HCN2 IC50. The gist of the method:
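Automated patch clamp (PatchXpress 7000A) at about 22° C. HCN current taken as leak-subtracted peak inward current at the end of a step to −110 mV, with a return to −30 mV for 8 seconds. Cumulative concentrations applied 7 minutes each; amplitude normalised to control.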

Another series concerns the target HCN4 (Homo sapiens (Human), UniProt Q9Y3Q4). Briefly: HCN4 current assay using PatchXpress 7000A. The conditions noted are these: PatchXpress protocol; read-out: PX HCN4 IC50. Type of series: cell-based. The essentials:
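Peak inward current taken at end of a −130 mV pulse, leak-subtracted, and normalized to the control amplitude. Cumulative concentrations applied for 7 min each at room temperature (approximately 22° C.) on an automated patch-clamp platform.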

The next series has as its target HCN1 (Homo sapiens (Human), UniProt O60741). Briefly: HCN1 current assay using PatchXpress 7000A. Particulars: PatchXpress protocol; read-out: PX HCN1 IC50. In kind it is cell-based. The procedure: Example 126A, Using PatchXpress 7000A
Solutions for recording HCN currents were:
The membrane voltage was then stepped back to −30 mV for a further 8 seconds.
The peak inward current measured at the end of the pulse to −110 mV (HCN1 and HCN2) or −130 mV (HCN4) was measured and any leak current subtracted to calculate the HCN current. The HCN current amplitude was measured after each control or compound addition and normalized to the control amplitude (Control A).
All experiments were performed at room temperature (approximately 22° C.).
Each test compound concentration was applied to the cell for seven (7) minutes, at which point the next cumulative concentration was applied.

A further series concerns the target hERG channel (Homo sapiens (Human), UniProt Q12809). Put plainly: hERG assay using IonWorks Quattro. In kind it is cell-based. Particulars: IonWorks protocol; read-out: IW hERG IC50. Here is the method:
Example 127A, Using IonWorks Quattro
Solutions for recording hERG currents were:
This was followed by a […] step of is to −30 mV to evoke the hERG tail current. This sequence was repeated 5 times at a frequency of 0.25 Hz (see FIG. 3). Currents were measured from the tail step at the 5th pulse and referenced to the holding current. Compounds were then incubated for 6-7 minutes prior to a second measurement of the hERG signal using an identical pulse train.
For orientation: hERG is a cardiac potassium channel; its block is linked to QT prolongation.

The next series has as its target hNav1.5 (Homo sapiens (Human), UniProt Q14524).
The target in the next series is MDR1 (P-glycoprotein) (Homo sapiens (Human), UniProt P08183). Briefly: in vitro. The conditions noted are these: dog, MDCK-MDR1, pH 7.4.
MDR1 (P-glycoprotein), sequence (P08183 whole entry): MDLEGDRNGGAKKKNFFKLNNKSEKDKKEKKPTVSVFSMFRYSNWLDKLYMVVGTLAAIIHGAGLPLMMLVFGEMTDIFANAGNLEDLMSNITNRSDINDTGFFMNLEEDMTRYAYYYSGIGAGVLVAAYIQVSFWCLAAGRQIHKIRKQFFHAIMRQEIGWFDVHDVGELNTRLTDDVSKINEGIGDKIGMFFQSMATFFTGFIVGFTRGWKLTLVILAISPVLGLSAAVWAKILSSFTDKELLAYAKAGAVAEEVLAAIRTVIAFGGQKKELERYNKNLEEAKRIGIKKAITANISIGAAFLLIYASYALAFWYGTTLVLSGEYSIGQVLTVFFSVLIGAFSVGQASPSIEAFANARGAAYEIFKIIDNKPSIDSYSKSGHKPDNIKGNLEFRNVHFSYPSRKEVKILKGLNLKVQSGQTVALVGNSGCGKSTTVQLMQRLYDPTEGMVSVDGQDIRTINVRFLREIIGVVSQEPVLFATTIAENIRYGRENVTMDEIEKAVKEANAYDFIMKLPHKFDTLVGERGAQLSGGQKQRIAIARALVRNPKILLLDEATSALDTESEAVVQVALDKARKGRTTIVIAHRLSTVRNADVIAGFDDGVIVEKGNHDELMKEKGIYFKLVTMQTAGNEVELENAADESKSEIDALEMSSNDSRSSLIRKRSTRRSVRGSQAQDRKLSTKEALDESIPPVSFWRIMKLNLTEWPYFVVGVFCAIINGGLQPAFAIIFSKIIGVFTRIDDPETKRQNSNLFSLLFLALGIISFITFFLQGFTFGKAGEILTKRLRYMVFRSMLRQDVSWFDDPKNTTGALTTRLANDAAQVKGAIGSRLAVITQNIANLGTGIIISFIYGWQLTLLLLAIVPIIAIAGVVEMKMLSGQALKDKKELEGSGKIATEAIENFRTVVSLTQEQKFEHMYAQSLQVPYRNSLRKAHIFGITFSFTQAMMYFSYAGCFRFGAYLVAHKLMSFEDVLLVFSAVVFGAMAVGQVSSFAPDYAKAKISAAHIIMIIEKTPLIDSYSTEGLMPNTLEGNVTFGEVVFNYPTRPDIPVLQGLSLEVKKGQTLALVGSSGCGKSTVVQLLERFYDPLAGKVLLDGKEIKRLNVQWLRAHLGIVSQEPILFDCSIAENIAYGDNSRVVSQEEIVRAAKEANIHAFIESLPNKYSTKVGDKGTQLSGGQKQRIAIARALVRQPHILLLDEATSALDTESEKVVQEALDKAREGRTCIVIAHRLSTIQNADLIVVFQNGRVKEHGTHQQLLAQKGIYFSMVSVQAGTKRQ

Counter-ions that a name gives are not always drawn. Some results are limits rather than exact numbers.

HCN1, sequence (O60741 whole entry, species assumed): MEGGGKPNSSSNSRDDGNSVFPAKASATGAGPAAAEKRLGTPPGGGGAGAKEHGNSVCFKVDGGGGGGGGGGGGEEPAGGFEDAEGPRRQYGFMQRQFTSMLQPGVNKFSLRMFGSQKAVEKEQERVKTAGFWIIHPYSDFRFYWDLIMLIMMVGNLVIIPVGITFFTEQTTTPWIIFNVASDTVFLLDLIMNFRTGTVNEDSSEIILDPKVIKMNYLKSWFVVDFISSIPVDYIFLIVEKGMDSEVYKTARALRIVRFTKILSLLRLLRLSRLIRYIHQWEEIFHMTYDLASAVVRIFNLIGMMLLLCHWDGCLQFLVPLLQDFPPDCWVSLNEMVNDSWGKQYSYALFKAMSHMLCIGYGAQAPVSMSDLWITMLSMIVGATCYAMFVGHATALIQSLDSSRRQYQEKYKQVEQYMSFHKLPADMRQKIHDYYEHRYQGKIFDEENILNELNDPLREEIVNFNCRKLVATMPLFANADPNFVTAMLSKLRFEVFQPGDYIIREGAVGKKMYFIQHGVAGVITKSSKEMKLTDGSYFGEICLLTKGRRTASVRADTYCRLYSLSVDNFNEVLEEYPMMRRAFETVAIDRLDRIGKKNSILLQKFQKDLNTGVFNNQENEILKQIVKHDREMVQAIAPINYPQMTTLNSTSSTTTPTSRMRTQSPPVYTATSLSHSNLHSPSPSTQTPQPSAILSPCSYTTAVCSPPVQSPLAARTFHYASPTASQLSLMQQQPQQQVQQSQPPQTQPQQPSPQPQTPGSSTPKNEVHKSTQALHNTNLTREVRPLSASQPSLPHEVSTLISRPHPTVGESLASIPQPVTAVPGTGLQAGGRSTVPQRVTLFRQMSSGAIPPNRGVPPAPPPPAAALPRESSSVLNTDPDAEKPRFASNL
HCN2, sequence (Q9UL51 whole entry): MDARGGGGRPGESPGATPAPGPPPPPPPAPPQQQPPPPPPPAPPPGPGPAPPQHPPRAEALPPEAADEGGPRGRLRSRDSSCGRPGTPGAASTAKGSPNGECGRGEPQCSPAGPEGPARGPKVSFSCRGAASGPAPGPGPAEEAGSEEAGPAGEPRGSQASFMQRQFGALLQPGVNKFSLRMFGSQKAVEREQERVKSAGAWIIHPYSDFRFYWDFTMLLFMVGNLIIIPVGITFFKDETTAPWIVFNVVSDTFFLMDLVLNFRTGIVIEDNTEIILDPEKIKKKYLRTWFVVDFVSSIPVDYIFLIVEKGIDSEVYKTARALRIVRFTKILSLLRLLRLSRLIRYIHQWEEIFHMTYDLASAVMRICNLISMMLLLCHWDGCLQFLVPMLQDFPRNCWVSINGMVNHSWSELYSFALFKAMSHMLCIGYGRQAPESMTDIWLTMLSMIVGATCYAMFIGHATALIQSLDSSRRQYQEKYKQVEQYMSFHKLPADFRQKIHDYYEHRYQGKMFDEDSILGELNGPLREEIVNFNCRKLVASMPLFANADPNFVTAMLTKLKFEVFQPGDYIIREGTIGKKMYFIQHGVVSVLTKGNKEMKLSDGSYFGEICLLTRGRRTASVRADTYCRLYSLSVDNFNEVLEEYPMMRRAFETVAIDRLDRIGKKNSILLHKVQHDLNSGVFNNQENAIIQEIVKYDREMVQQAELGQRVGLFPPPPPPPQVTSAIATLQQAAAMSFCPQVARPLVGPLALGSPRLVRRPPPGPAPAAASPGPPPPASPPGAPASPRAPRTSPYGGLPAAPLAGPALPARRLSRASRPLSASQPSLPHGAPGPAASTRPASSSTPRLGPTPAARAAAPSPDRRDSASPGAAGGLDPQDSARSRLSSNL
hNav1.5, sequence (Q14524 whole entry): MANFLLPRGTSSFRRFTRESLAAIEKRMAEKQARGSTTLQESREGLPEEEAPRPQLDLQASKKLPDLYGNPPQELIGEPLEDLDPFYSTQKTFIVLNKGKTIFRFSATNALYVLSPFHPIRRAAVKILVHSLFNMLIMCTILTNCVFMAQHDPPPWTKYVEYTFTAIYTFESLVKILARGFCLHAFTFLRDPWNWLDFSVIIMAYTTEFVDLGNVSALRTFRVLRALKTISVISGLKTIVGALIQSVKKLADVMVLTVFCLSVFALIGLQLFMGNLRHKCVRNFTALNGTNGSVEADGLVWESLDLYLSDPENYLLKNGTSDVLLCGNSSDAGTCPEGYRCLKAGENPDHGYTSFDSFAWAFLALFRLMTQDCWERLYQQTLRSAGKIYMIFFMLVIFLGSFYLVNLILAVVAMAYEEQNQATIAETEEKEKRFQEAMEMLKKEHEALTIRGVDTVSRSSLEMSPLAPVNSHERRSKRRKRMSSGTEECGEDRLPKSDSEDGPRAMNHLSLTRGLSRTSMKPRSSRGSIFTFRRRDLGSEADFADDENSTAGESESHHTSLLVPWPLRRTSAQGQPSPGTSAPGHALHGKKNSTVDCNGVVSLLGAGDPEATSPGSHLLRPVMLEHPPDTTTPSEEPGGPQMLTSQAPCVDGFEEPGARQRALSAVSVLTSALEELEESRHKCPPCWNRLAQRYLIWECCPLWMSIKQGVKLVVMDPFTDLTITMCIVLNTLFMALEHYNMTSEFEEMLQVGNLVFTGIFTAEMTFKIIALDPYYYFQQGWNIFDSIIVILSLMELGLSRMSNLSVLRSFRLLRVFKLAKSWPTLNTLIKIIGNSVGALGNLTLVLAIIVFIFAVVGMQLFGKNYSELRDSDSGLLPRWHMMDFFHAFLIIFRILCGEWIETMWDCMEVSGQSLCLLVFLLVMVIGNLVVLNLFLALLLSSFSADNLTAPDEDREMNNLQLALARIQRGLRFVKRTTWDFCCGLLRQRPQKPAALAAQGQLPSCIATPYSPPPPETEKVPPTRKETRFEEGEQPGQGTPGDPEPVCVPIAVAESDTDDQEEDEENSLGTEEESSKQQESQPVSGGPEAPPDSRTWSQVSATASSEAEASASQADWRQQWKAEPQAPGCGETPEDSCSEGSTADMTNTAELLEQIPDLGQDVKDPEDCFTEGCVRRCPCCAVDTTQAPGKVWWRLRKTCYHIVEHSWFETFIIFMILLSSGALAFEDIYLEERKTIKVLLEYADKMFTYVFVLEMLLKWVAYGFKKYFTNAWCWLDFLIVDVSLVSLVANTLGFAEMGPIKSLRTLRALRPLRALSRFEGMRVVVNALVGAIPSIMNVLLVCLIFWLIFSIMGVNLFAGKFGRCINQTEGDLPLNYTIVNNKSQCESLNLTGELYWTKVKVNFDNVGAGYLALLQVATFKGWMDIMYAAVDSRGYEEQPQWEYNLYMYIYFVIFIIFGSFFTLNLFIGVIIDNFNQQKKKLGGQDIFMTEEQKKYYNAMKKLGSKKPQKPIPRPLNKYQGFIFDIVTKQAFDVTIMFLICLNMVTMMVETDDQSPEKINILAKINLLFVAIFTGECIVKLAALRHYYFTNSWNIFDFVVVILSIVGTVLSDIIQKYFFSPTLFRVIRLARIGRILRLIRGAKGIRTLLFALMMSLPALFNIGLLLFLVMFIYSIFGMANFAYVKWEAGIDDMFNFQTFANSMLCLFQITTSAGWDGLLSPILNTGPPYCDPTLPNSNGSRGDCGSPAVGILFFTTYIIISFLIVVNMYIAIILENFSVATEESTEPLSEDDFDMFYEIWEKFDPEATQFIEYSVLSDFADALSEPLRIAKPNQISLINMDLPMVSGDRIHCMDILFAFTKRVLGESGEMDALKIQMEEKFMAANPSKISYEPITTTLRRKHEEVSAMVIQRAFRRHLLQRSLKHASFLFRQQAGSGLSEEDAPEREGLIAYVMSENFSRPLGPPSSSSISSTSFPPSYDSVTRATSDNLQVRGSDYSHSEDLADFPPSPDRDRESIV
Procedure for hNav1.5: Solutions for recording Nav1.5 currents were:
Electrophysiological recordings were made from a human embryonic kidney (HEK) cell line stably expressing the full length hNav1.5. Population patch clamp measurements were made in the perforated patch clamp configuration (100 μg ml^−1 amphotericin) at room temperature (approx. 22° C.) using an IonWorks Quattro from Molecular Devices. […] Currents were first measured under control (pre-compound addition) conditions. […] Currents were measured from the depolarising step at the 15th pulse and referenced to the holding current.

In general, IC50 refers to the midpoint of a concentration-inhibition curve. Turning to `N#Cc1nc(C[C@H](N)c2ccccc2-c2noc3ccccc23)ccc1F` [Example 6, (S)-1-[2-(Benzo[d]isoxazol-3-yl)phenyl]-2-(6-cyano-5-fluoropyridine-2-yl)ethan-1-amine hydrochloride], the IC50 on HCN2 came to 0.39 µM; at HCN4 it was 8.1 µM; at HCN1, 1.8 µM.

As to `CCc1ccc(C)c(C[C@H](N)c2ccccc2-c2noc3ccccc23)n1` [Example 9, (S)-1-[2-(Benzo[d]isoxazol-3-yl)phenyl]-2-(6-ethyl-3-methylpyridine-2-yl)ethan-1-amine hydrochloride], the half-maximal inhibitory concentration (IC50) on HCN2 is 0.26 µM; on HCN4, 1.7 µM; at HCN1, 0.37 µM.

Take `N#Cc1ccc2c(-c3ccccc3[C@@H](N)Cc3ccccn3)noc2c1` [Example 29, (S)-1-[2-(6-Cyanobenzo[d]isoxazol-3-yl)phenyl]-2-(pyridine-2-yl)ethan-1-amine]: the IC50 on HCN2 was 4.3 µM; at HCN4, above 30 µM; at HCN1, 8.9 µM.

As for `N[C@@H](Cc1ccccn1)c1ccccc1-c1noc2cc(CO)ccc12` [Example 30, (S)-1-[2-(6-Hyroxymethylbenzo[d]isoxazol-3-yl)phenyl]-2-(pyridine-2-yl)ethan-1-amine hydrochloride], the concentration for half-maximal inhibition (IC50) at HCN2 is 3 µM; on HCN4 it was 12.8 µM; on HCN1 it was 3 µM.

Broadly, the efflux ratio is a quotient of directional permeabilities that is used to spot active efflux. For the compound `N[C@@H](Cc1ccccn1)c1ccccc1-c1noc2ccccc12` [Example 42, (S)-1-[2-(Benzo[d]isoxazol-3-yl)phenyl]-2-(pyridine-2-yl)ethan-1-amine hydrochloride], the half-maximal inhibitory concentration (IC50) at HCN2 was 1.1 µM; at HCN4, above 30 µM; at hERG channel, 3.8 µM; on hNav1.5, 6.9 µM. Also, the efflux ratio at 1 h, 10 μM at MDR1 (P-glycoprotein) was 1.5.

Take `N[C@@H](Cc1ncccn1)c1ccccc1-c1noc2ccccc12` [Example 56, (S)-1-[2-(Benzo[d]isoxazol-3-yl)phenyl]-2-(pyrimidine-2-yl)ethan-1-amine]: the IC50 on HCN2 was 1.2 µM; on HCN4, 30 µM; on hERG channel, 14.4 µM; at hNav1.5 it was 7 µM. In addition, at MDR1 (P-glycoprotein), the efflux ratio at 1 h, 10 μM was 2.5.

`Cn1nc(-c2ccccc2[C@@H](N)Cc2ccccn2)c2ccccc21` [Example 60, (S)-1-[2-(1-Methyl-1H-indazole-3-yl)phenyl]-2-(pyridine-2-yl)ethan-1-amine hydrochloride]: the IC50 on HCN2 is 3.1 µM; at HCN4 it was above 30 µM; on HCN1 it was above 30 µM; on hERG channel, 0.32 µM; on hNav1.5, 9.2 µM.

For the compound `N[C@@H](Cc1ncccc1F)c1ccccc1-c1noc2ccccc12` [Example 63, (S)-1-[2-(Benzo[d]isoxazol-3-yl)phenyl]-2-(3-fluoropyridin-2-yl)ethan-1-amine hydrochloride], the figures for the half-inhibitory concentration (IC50) at HCN2, on HCN4 and on HCN1 were 0.5 µM, above 30 µM and 8 µM, respectively.

Turning to `N[C@@H](Cc1ccc(F)cn1)c1ccccc1-c1noc2ccccc12` [Example 69, (S)-1-[2-(Benzo[d]isoxazol-3-yl)phenyl]-2-(5-fluoropyridin-2-yl)ethan-1-amine hydrochloride], the values for the IC50 at HCN2, at HCN4 and on HCN1 were 0.5 µM, 8.2 µM and 1.4 µM, respectively.

On to `COc1ccnc(C[C@H](N)c2ccccc2-c2noc3ccccc23)c1` [Example 70, (S)-1-[2-(Benzo[d]isoxazol-3-yl)phenyl]-2-(4-methoxypyridin-2-yl)ethan-1-amine], for which the IC50 at HCN2 came out at 1 µM; on HCN4, 19.1 µM; on HCN1 it was 3.8 µM.

Turning to `N#Cc1ccc(F)c(C[C@H](N)c2ccccc2-c2noc3ccccc23)n1` [Example 71, (S)-1-[2-(Benzo[d]isoxazol-3-yl)phenyl]-2-(6-cyano-3-fluoropyridin-2-yl)ethan-1-amine formate], the IC50 on HCN2 is 0.5 µM; on HCN4, 3.5 µM; on HCN1, 4.4 µM.

As for `Cc1ccc(F)c(C[C@H](N)c2ccccc2-c2noc3ccccc23)n1` [Example 73, (S)-1-[2-(Benzo[d]isoxazol-3-yl)phenyl]-2-(3-fluoro-6-methylpyridin-2-yl)ethan-1-amine hydrochloride], the IC50 at HCN2 amounted to 0.4 µM; at HCN4, 2.8 µM; on HCN1, 0.5 µM.

For the compound `Cc1cccc(-c2noc3ccccc23)c1[C@@H](N)Cc1ccccn1` [Example 84, (S)-1-[2-(Benzo[d]isoxazol-3-yl)-6-methylphenyl]-2-(pyridine-2-yl)ethan-1-amine hydrochloride], the IC50 on HCN2 turned out to be 0.9 µM; on HCN4 it was 27 µM; on hERG channel it was 3 µM; against hNav1.5, 5.7 µM. For the same compound, on MDR1 (P-glycoprotein), the efflux ratio at 1 h, 10 μM was found to be 0.8.

Regarding `CN(C)C(=O)c1cccc(C[C@H](N)c2ccccc2-c2noc3ccccc23)n1` [Example 89, (S)-6-{2-Amino-2-[2-(Benzo[d]isoxazol-3-yl)phenyl]ethyl-N,N-dimethylpyridine-2-carboxamide hydrochloride], the IC50 is 3.1 µM at HCN2, above 30 µM on HCN4, 19.1 µM on hERG channel and 5.8 µM on hNav1.5. Besides, the efflux ratio at 1 h, 10 μM at MDR1 (P-glycoprotein) is 24.6.

`N[C@@H](Cc1cccc(-c2cn[nH]c2)n1)c1ccccc1-c1noc2ccccc12` [Example 91, (S)-2-[6-(1H-Pyrazol-4-yl)pyridine-2-yl])-1-[2-(benzo[d]isoxazol-3-yl)phenyl]ethan-1-amine hydrochloride]: the IC50 at HCN2 is 1 µM; at HCN4, 9.9 µM; at hERG channel, 1.8 µM; against hNav1.5, 3.4 µM. Also, the efflux ratio at 1 h, 10 μM on MDR1 (P-glycoprotein) was determined as 23.1.

Take `N#Cc1ccc2c(-c3ccccc3[C@@H](N)Cc3cccc(C#N)n3)noc2c1` [Example 95, (S)-1-[2-(6-Cyanobenzo[d]isoxazol-3-yl)phenyl]-2-(6-cyanopyridine-2-yl)ethan-1-amine]: the IC50 was 1.4 µM at HCN2, above 30 µM at HCN4, 2.9 µM on hERG channel and above 33 µM against hNav1.5. For the same compound, the efflux ratio at 1 h, 10 μM on MDR1 (P-glycoprotein) was determined as 4.5.

As to `CNc1cccc(C[C@H](N)c2ccccc2-c2noc3cc(C#N)ccc23)n1` [Example 97, (S)-1-[2-(6-Cyanobenzo[d]isoxazol-3-yl)phenyl]-2-(6-methylaminopyridine-2-yl)ethan-1-amine dihydrochloride], the IC50 at HCN2 worked out at 2.6 µM; on HCN4, 13.3 µM; on hERG channel, 0.54 µM; on hNav1.5, 8.4 µM. Further, the efflux ratio at 1 h, 10 μM on MDR1 (P-glycoprotein) amounted to 12.2.

As to `N#Cc1ccc2c(-c3ccccc3[C@@H](N)Cc3cccc(OCCO)n3)noc2c1` [Example 99, (S)-1-[2-(6-Cyanobenzo[d]isoxazol-3-yl)phenyl]-2-[6-(2-hydroxyethoxyl)pyridine-2-yl]ethan-1-amine hydrochloride], the concentration for half-maximal inhibition (IC50) at HCN2 was 2.4 µM; at HCN4, above 30 µM; at hERG channel, 2.1 µM; against hNav1.5 it was 18.5 µM. Moreover, on MDR1 (P-glycoprotein), the efflux ratio at 1 h, 10 μM stood at 78.5.

Take `N[C@@H](Cc1cccc(CCO)n1)c1ccccc1-c1noc2ccccc12` [Example 100, (S)-1-[2-(Benzo[d]isoxazol-3-yl)phenyl]-2-[6-(2-hydroxyethyl)pyridine-2-yl]ethan-1-amine hydrochloride]: the half-inhibitory concentration (IC50) is 2.3 µM at HCN2, above 30 µM on HCN4, 12.8 µM at hERG channel and 2.8 µM against hNav1.5. In addition, the efflux ratio at 1 h, 10 μM at MDR1 (P-glycoprotein) amounted to 8.7.

On to `N[C@@H](Cc1ccccn1)c1c(F)cccc1-c1noc2ccccc12` [Example 111, (S)-1-[2-(Benzo[d]isoxazol-3-yl)-6-fluorophenyl]-2-(pyridin-2-yl)ethan-1-amine hydrochloride], for which the half-inhibitory concentration (IC50) was 1.8 µM on HCN2, above 30 µM on HCN4, 7.4 µM at hERG channel and 27.9 µM at hNav1.5. The efflux ratio at 1 h, 10 μM at MDR1 (P-glycoprotein) turned out to be 1.

On to `Cc1cccc(C[C@H](N)c2ccccc2-c2noc3ccccc23)n1` [Example 114, (S)-1-[2-(Benzo[d]isoxazol-3-yl)phenyl]-2-(6-methylpyridine-2-yl)ethan-1-amine hydrochloride], for which the IC50 was found to be 0.62 µM on HCN2, 9 µM at HCN4 and 4.5 µM at HCN1.

On to `Cc1ccc(S(C)(=O)=O)nc1C[C@H](N)c1ccccc1-c1noc2ccccc12` [Example 125, (S)-1-[2-(Benzo[d]isoxazol-3-yl)phenyl]-2-[3-methyl-6-(methylsulfonyl)pyridine-2-yl]ethan-1-amine hydrochloride], for which the results for the half-maximal inhibitory concentration (IC50) at HCN2, on HCN4 and at HCN1 were 0.24 µM, 1.2 µM and 0.4 µM, respectively.
